Reference: PMC6838683, “Discovery of Human Signaling Systems: Pairing Peptides to G Protein-Coupled Receptors” (Cell, 2019)
Residues, ends and D or L forms follow the SMILES beside them.

Legend:
[1] = molecular target: T1, GPR1 (Homo sapiens, UniProt P46091); assay: β-arrestin recruitment (PathHunter); assay type: cell-based; conditions: receptor GPR1; mean, SEM and n (2-3); read-out: b-arrestin recruitment assays (PathHunter) pEC50 (converted)
T1 sequence (P46091 1-355): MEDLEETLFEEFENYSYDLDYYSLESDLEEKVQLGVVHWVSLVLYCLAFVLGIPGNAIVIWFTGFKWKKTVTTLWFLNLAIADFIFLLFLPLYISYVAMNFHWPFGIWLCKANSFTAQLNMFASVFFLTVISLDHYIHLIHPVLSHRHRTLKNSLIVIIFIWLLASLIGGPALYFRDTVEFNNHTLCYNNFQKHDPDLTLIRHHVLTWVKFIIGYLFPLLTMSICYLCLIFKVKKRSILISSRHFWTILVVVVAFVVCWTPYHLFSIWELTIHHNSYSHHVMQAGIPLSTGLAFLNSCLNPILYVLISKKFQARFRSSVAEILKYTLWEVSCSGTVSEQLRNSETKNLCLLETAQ
Method: PathHunter eXpress Assays (DiscoverX) were performed in 384-well format according to the manufacturer’s recommendations. GPR1 cells were incubated with peptides for 90 min and luminescence measured using an EnSpire 2300 Multimode plate reader (PerkinElmer).

[2] = molecular target: T1, GPR1; assay: β-arrestin recruitment (Tango), validation; assay type: cell-based; design: host or cells: HTLA cells (HEK293-derived); conditions: receptor GPR1; mean, SEM and n (2-3); read-out: b-arrestin recruitment assays (Tango) pEC50 (converted)
[3] = test system: 120 GPCR targets, including all available orphan receptors and 27 known class A peptide receptors; assay: Peptide library screen, β-arrestin recruitment (Tango, fold change, 10 μM); assay type: cell-based, human; conditions: Tango; receptor(s) at which the known library peptide was active, among its known GPCR target(s); validated pairings
Method: The peptide library was additionally screened against 120 GPCR targets in parallel, including all available orphan receptors and 27 known class A peptide receptors using the Tango assay platform ([Kroeze et al., 2015]). Briefly, HTLA cells (a HEK293 cell line stably expressing a tTA-dependent luciferase reporter and a β-arrestin2-TEV fusion gene) were plated 10,000 cells/well in poly-L-lysine–coated clear-bottom white 384-well plates in DMEM supplemented with 10% FBS, 100 U/ml penicillin and 100 μg/ml streptomycin, 2 μg/ml puromycin and 100 μg/ml hygromycin B. 24 hr later, cells were transfected with Tango GPCR constructs using the calcium phosphate method ([Jordan et al., 1996]). The next day, culture medium was changed to DMEM + 1% dFBS and 10 μM peptides were added for overnight stimulation. Bright-Glo solution (Promega) was incubated for 15–20 min at room temperature, and luminescence was counted using a Trilux luminescence counter (Wallac).

| EC50 [1] [nM] | EC50 [2] [nM] | Active at: (activity in b-arrestin recruitment assays) [3] | Molecule |
| --- | --- | --- | --- |
| 661 | 5010 |  | CC(C)C[C@H](NC(=O)[C@H](CCCNC(=N)N)NC(=O)[C@H](CC(=O)O)NC(=O)[C@H](CC(C)C)NC(=O)[C@@H]1CCCN1C(=O)[C@H](CO)NC(=O)CNC(=O)[C@H](Cc1ccccc1)NC(=O)CNC(=O)[C@H](CO)NC(=O)[C@H](Cc1ccccc1)NC(=O)[C@H](CO)NC(=O)[C@H](CCCNC(=N)N)NC(=O)[C@@H](N)CCCCN)C(=O)N[C@@H](CO)C(=O)N[C@@H](C)C(=O)NCC(=O)N[C@@H](CO)C(=O)N[C@H](C(=O)N[C@@H](CC(=O)O)C(=O)N[C@@H](Cc1c[nH]cn1)C(=O)N[C@@H](CCCCN)C(N)=O)C(C)C [141 resynthesized] (H-KRSFSGFGSPLDRLSAGSVDHK-NH2) |
| 9.77 | 5250 |  | CC[C@H](C)[C@H](NC(=O)[C@H](CCCNC(=N)N)NC(=O)[C@H](Cc1c[nH]cn1)NC(=O)[C@H](CO)NC(=O)[C@@H]1CCCN1C(=O)[C@H](CC(=O)O)NC(=O)[C@H](CC(C)C)NC(=O)[C@H](CC(N)=O)NC(=O)[C@H](CCC(N)=O)NC(=O)[C@H](CC(C)C)NC(=O)[C@H](CC(N)=O)NC(=O)[C@H](CCCCN)NC(=O)[C@@H](NC(=O)[C@@H](NC(=O)[C@H](CO)NC(=O)[C@H](CCSC)NC(=O)[C@H](CCCNC(=N)N)NC(=O)CNC(=O)[C@H](CO)NC(=O)[C@@H]1CCCN1C(=O)[C@H](C)NC(=O)[C@@H](N)CCCCN)[C@@H](C)CC)C(C)C)C(=O)N[C@@H](CO)C(=O)N[C@@H](CC(=O)O)C(=O)N[C@@H](CCCNC(=N)N)C(=O)N[C@@H](CC(=O)O)C(=O)N[C@@H](Cc1ccc(O)cc1)C(=O)N[C@@H](CCSC)C(=O)NCC(=O)N[C@@H](Cc1c[nH]c2ccccc12)C(=O)N[C@@H](CCSC)C(=O)N[C@@H](CC(=O)O)C(=O)N[C@@H](Cc1ccccc1)C(N)=O [194 original] (H-KAPSGRMSIVKNLQNLDPSHRISDRDYMGWMDF-NH2) |
| 27.5 | 6610 |  | CC[C@H](C)[C@H](NC(=O)[C@H](CCCNC(=N)N)NC(=O)[C@H](Cc1c[nH]cn1)NC(=O)[C@H](CO)NC(=O)[C@@H]1CCCN1C(=O)[C@H](CC(=O)O)NC(=O)[C@H](CC(C)C)NC(=O)[C@H](CC(N)=O)NC(=O)[C@H](CCC(N)=O)NC(=O)[C@H](CC(C)C)NC(=O)[C@H](CC(N)=O)NC(=O)[C@H](CCCCN)NC(=O)[C@@H](NC(=O)[C@@H](NC(=O)[C@H](CO)NC(=O)[C@H](CCSC)NC(=O)[C@H](CCCNC(=N)N)NC(=O)CNC(=O)[C@H](CO)NC(=O)[C@@H]1CCCN1C(=O)[C@H](C)NC(=O)[C@@H](N)CCCCN)[C@@H](C)CC)C(C)C)C(=O)N[C@@H](CO)C(=O)N[C@@H](CC(=O)O)C(=O)N[C@@H](CCCNC(=N)N)C(=O)N[C@@H](CC(=O)O)C(=O)N[C@@H](Cc1ccc(O)cc1)C(=O)N[C@@H](CCSC)C(=O)NCC(=O)N[C@@H](Cc1c[nH]c2ccccc12)C(=O)N[C@@H](CCSC)C(=O)N[C@@H](CC(=O)O)C(=O)N[C@@H](Cc1ccccc1)C(N)=O [194 resynthesized] (H-KAPSGRMSIVKNLQNLDPSHRISDRDYMGWMDF-NH2) |
| 0.0132 | 39.8 |  | CSCC[C@H](NC(=O)[C@@H](N)Cc1c[nH]c2ccccc12)C(=O)N[C@@H](CC(=O)O)C(=O)N[C@@H](Cc1ccccc1)C(N)=O [194.2 (Phoenix)] |
| 14100 | 14500 |  | CC(C)C[C@H](NC(=O)[C@H](CCCNC(=N)N)NC(=O)[C@H](CC(=O)O)NC(=O)[C@H](CC(C)C)NC(=O)[C@@H]1CCCN1C(=O)[C@H](CO)NC(=O)CNC(=O)[C@H](Cc1ccccc1)NC(=O)CNC(=O)[C@H](CO)NC(=O)[C@H](Cc1ccccc1)NC(=O)[C@@H](N)CO)C(=O)N[C@@H](CO)C(=O)N[C@@H](C)C(=O)NCC(=O)N[C@@H](CO)C(=O)N[C@H](C(=O)N[C@@H](CC(=O)O)C(=O)N[C@@H](Cc1c[nH]cn1)C(=O)N[C@@H](CCCCN)C(N)=O)C(C)C [Peptide 141.1] (H-SFSGFGSPLDRLSAGSVDHK-NH2) |
|  |  | MC4R | YVMGHFRWDRF [Peptide 74] |
